Laboratory results: ChEMBL document CHEMBL1201862, “PubChem BioAssay data set” (2004)
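Compound exposure: 48 hours, 5 concentrations, 96-well plates. Abbreviation: GI50, concentration required for 50% inhibition of growth.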 Active and inactive are the calls of the source. No stated cut-off is given here; in the data, active = GI50 up to about 1.1 µM and inactive = higher.

Legend:
Assay in all cases: DTP human tumour cell line panel, 48 h
SNB-19 = test system: SNB-19
OVCAR-5 = test system: OVCAR-5
MDA-N = test system: MDA-N
UACC-62 = test system: UACC-62
EKVX = test system: EKVX
CCRF-CEM = test system: CCRF-CEM
ACHN = test system: ACHN
SR = test system: SR
SNB-75 = test system: SNB-75
HOP-62 = test system: HOP-62
KM12 = test system: KM12
KM-20L2 = test system: KM-20L2
DLD-1 = test system: DLD-1
A549 = test system: A549
PC-3 = test system: PC-3
SK-MEL-2 = test system: SK-MEL-2
NCI/ADR-RES = test system: NCI/ADR-RES
DU-145 = test system: DU-145
HL-60 = test system: HL-60
LXFL 529 = test system: LXFL 529
NCI-H226 = test system: NCI-H226
CAKI-1 = test system: CAKI-1
HT-29 = test system: HT-29
SF-268 = test system: SF-268
MDA-MB-435 = test system: MDA-MB-435
OVCAR-3 = test system: OVCAR-3
OVCAR-4 = test system: OVCAR-4
IGROV-1 = test system: IGROV-1
HCT-15 = test system: HCT-15
TK-10 = test system: TK-10
SK-OV-3 = test system: SK-OV-3
UACC-257 = test system: UACC-257
NCI-H23 = test system: NCI-H23
SK-MEL-28 = test system: SK-MEL-28
T47D = test system: T47D
SF-539 = test system: SF-539
XF498 = test system: XF498
SF-295 = test system: SF-295
LOX IMVI = test system: LOX IMVI
SK-MEL-5 = test system: SK-MEL-5
COLO 205 = test system: COLO 205
Hs-578T = test system: Hs-578T
RXF 393 = test system: RXF 393
MOLT-4 = test system: MOLT-4
A498 = test system: A498
Malme-3M = test system: Malme-3M
SW-620 = test system: SW-620
NCI-H522 = test system: NCI-H522
NCI-H460 = test system: NCI-H460
786-0 = test system: 786-0
MDA-MB-231 = test system: MDA-MB-231
RXF 631 = test system: RXF 631
HOP-92 = test system: HOP-92
SN12C = test system: SN12C
HCT-116 = test system: HCT-116
RPMI-8226 = test system: RPMI-8226
MCF7 = test system: MCF7
UO-31 = test system: UO-31
HCC 2998 = test system: HCC 2998
K562 = test system: K562
OVCAR-8 = test system: OVCAR-8
BT-549 = test system: BT-549
U-251 = test system: U-251
DMS-114 = test system: DMS-114
M14 = test system: M14
SNB-78 = test system: SNB-78
M19-MEL = test system: M19-MEL

CC1c2ccccc2Cn2cc3c(c21)C(=O)c1cccc(OP(=O)(O)OCc2ccccc2)c1C3=O (centres undefined)
GI50 (SNB-19): > 100 µM (inactive)
GI50 (OVCAR-5): > 100 µM (inactive)
GI50 (MDA-N): > 100 µM (inactive)
GI50 (UACC-62): > 100 µM (inactive)
GI50 (EKVX): > 66.1 µM (inactive)
GI50 (CCRF-CEM): > 56 µM (inactive)
GI50 (ACHN): > 100 µM (inactive)
GI50 (SR): > 66.5 µM (inactive)
GI50 (SNB-75): > 100 µM (inactive)
GI50 (HOP-62): > 100 µM (inactive)
GI50 (KM12): > 100 µM (inactive)
GI50 (KM-20L2): > 100 µM (inactive)
GI50 (DLD-1): > 100 µM (inactive)
GI50 (A549): > 100 µM (inactive)
GI50 (PC-3): > 100 µM (inactive)
GI50 (SK-MEL-2): > 100 µM (inactive)
GI50 (NCI/ADR-RES): > 100 µM (inactive)
GI50 (DU-145): > 100 µM (inactive)
GI50 (HL-60): > 52.5 µM (inactive)
GI50 (LXFL 529): > 100 µM (inactive)
GI50 (NCI-H226): > 100 µM (inactive)
GI50 (CAKI-1): > 82.8 µM (inactive)
GI50 (HT-29): > 100 µM (inactive)
GI50 (SF-268): > 100 µM (inactive)
GI50 (MDA-MB-435): > 100 µM (inactive)
GI50 (OVCAR-3): > 100 µM (inactive)
GI50 (OVCAR-4): > 100 µM (inactive)
GI50 (IGROV-1): > 100 µM (inactive)
GI50 (HCT-15): > 100 µM
GI50 (TK-10): > 100 µM (inactive)
GI50 (SK-OV-3): > 100 µM (inactive)
GI50 (UACC-257): > 100 µM (inactive)
GI50 (NCI-H23): > 100 µM (inactive)
GI50 (SK-MEL-28): > 100 µM (inactive)
GI50 (T47D): 51.6 µM (inactive)
GI50 (SF-539): > 100 µM (inactive)
GI50 (XF498): 34.3 µM (inactive)
GI50 (SF-295): > 100 µM (inactive)
GI50 (LOX IMVI): > 100 µM (inactive)
GI50 (SK-MEL-5): > 100 µM (inactive)
GI50 (COLO 205): > 100 µM (inactive)
GI50 (Hs-578T): > 100 µM (inactive)
GI50 (RXF 393): > 100 µM (inactive)
GI50 (MOLT-4): > 100 µM (inactive)
GI50 (A498): > 100 µM (inactive)
GI50 (Malme-3M): > 100 µM (inactive)
GI50 (SW-620): > 100 µM (inactive)
GI50 (NCI-H522): > 100 µM (inactive)
GI50 (NCI-H460): > 100 µM (inactive)
GI50 (786-0): > 100 µM (inactive)
GI50 (MDA-MB-231): > 100 µM (inactive)
GI50 (RXF 631): > 100 µM (inactive)
GI50 (HOP-92): > 100 µM (inactive)
GI50 (SN12C): > 100 µM (inactive)
GI50 (HCT-116): > 100 µM (inactive)
GI50 (RPMI-8226): > 100 µM (inactive)
GI50 (MCF7): 71.9 µM (inactive)
GI50 (UO-31): > 78.3 µM (inactive)
GI50 (HCC 2998): > 100 µM (inactive)
GI50 (K562): > 74.6 µM (inactive)
GI50 (OVCAR-8): > 100 µM (inactive)
GI50 (BT-549): > 100 µM (inactive)
GI50 (U-251): > 100 µM (inactive)
GI50 (DMS-114): > 100 µM (inactive)
GI50 (M14): > 100 µM (inactive)

O=C1CCC2(c3ccccc3)Nc3ccc(Cl)cc3N12 (centres undefined)
GI50 (OVCAR-5): > 100 µM (inactive)
GI50 (UACC-62): > 100 µM (inactive)
GI50 (EKVX): > 100 µM (inactive)
GI50 (CCRF-CEM): > 100 µM (inactive)
GI50 (ACHN): > 100 µM (inactive)
GI50 (SNB-75): 37.7 µM (inactive)
GI50 (HOP-62): > 100 µM (inactive)
GI50 (KM12): > 100 µM (inactive)
GI50 (KM-20L2): > 100 µM (inactive)
GI50 (DLD-1): > 100 µM (inactive)
GI50 (A549): > 100 µM (inactive)
GI50 (SK-MEL-2): > 100 µM (inactive)
GI50 (HL-60): > 100 µM (inactive)
GI50 (LXFL 529): > 100 µM (inactive)
GI50 (NCI-H226): > 100 µM (inactive)
GI50 (CAKI-1): > 100 µM (inactive)
GI50 (HT-29): > 100 µM (inactive)
GI50 (SF-268): > 100 µM (inactive)
GI50 (OVCAR-3): > 100 µM (inactive)
GI50 (OVCAR-4): > 100 µM (inactive)
GI50 (IGROV-1): > 100 µM (inactive)
GI50 (HCT-15): > 100 µM
GI50 (TK-10): > 100 µM (inactive)
GI50 (SK-OV-3): > 100 µM (inactive)
GI50 (UACC-257): > 100 µM (inactive)
GI50 (NCI-H23): > 100 µM (inactive)
GI50 (SNB-78): > 100 µM (inactive)
GI50 (SK-MEL-28): > 100 µM (inactive)
GI50 (SF-539): > 100 µM (inactive)
GI50 (XF498): > 100 µM (inactive)
GI50 (SF-295): > 100 µM (inactive)
GI50 (LOX IMVI): > 100 µM (inactive)
GI50 (SK-MEL-5): > 100 µM (inactive)
GI50 (M19-MEL): > 100 µM (inactive)
GI50 (COLO 205): > 100 µM (inactive)
GI50 (RXF 393): > 100 µM (inactive)
GI50 (MOLT-4): > 100 µM (inactive)
GI50 (A498): > 100 µM (inactive)
GI50 (Malme-3M): > 100 µM (inactive)
GI50 (SW-620): > 100 µM (inactive)
GI50 (NCI-H522): > 100 µM (inactive)
GI50 (NCI-H460): > 100 µM (inactive)
GI50 (786-0): > 100 µM (inactive)
GI50 (RXF 631): > 100 µM (inactive)
GI50 (HOP-92): 84.5 µM (inactive)
GI50 (SN12C): > 100 µM (inactive)
GI50 (RPMI-8226): > 100 µM (inactive)
GI50 (UO-31): > 100 µM (inactive)
GI50 (HCC 2998): > 100 µM (inactive)
GI50 (K562): 77.8 µM (inactive)
GI50 (OVCAR-8): > 100 µM (inactive)
GI50 (U-251): > 100 µM (inactive)
GI50 (DMS-114): 63.5 µM (inactive)
GI50 (M14): > 100 µM (inactive)
